Reference: the NIST ThermoML archive (doi:10.1016/j.jct.2019.03.011)

Assay: wn = mass fraction of the nth substance listed
Conditions: 101 kPa, Liquid; for viscosity: Falling or rolling sphere viscometry; for speed of sound: Frequency=3 MHz, Single path-length method; for mass density: Vibrating tube method

Cl.NNC(N)=O [semicarbazide hydrochloride] + O
Conditions | mass density, w1 = 0.01 [kg/m3] | mass density, w1 = 0.02 [kg/m3] | speed of sound, w1 = 0.01 [m/s] | speed of sound, w1 = 0.02 [m/s] | viscosity, w1 = 0.01 [mPa·s] | viscosity, w1 = 0.02 [mPa·s]
293.15 K | 1002.51 | 1006.71 | 1490 | 1495.8 | 1.016 | 1.031
298.15 K | 1001.29 | 1005.43 | 1503 | 1509 | 0.9018 | 0.9134
303.15 K | 999.819 | 1003.99 | 1515.1 | 1520.9 | 0.8053 | 0.8152
308.15 K | 998.185 | 1002.31 | 1525.6 | 1531.2 | 0.7251 | 0.733
313.15 K | 996.304 | 1000.34 | 1534.3 | 1540 | 0.6562 | 0.6646
318.15 K | 994.429 | 998.472 | 1540.7 | 1546.7 | 0.6021 | 0.6062
